Literature values in patent US11629364B2, “Methods for synthesizing anticoagulant polysaccharides” (OPTIMVIA, LLC, priority 2019, dated 2023).

Conditions: pH 8.0

Nc1ncnc2c1ncn2[C@@H]1O[C@H](COP(=O)(O)OS(=O)(=O)O)[C@@H](OP(=O)(O)O)[C@H]1O [PAPS, 3′-phosphoadenosine 5′-phosphosulfate]
half-life of PAPS: about 20 hours
